{
  "source": "the NIST ThermoML archive (doi:10.1021/je8008073)",
  "assay": "wn = mass fraction of the nth substance listed",
  "details": "Liquid; for mass density: Vibrating tube method; for viscosity: Falling or rolling sphere viscometry",
  "note": "Numbers after ± are expanded uncertainties.",
  "data": [
    {"smiles": "CC(C)Cc1ccccc1", "note": "[(2-methylpropyl)benzene] + CCCCCCCCCCCC", "values": [
      {"measurement": "mass density", "setting": "293.15 K, 100 kPa, w2 = 0.5", "result": "795.4 ± 1", "unit": "kg/m3"},
      {"measurement": "mass density", "setting": "293.15 K, 2000 kPa, w2 = 0.5", "result": "796.7 ± 1", "unit": "kg/m3"},
      {"measurement": "mass density", "setting": "293.15 K, 4000 kPa, w2 = 0.5", "result": "798.1 ± 1", "unit": "kg/m3"},
      {"measurement": "mass density", "setting": "293.15 K, 6000 kPa, w2 = 0.5", "result": "799.5 ± 1", "unit": "kg/m3"},
      {"measurement": "mass density", "setting": "293.15 K, 8000 kPa, w2 = 0.5", "result": "801.1 ± 1", "unit": "kg/m3"},
      {"measurement": "mass density", "setting": "293.15 K, 10000 kPa, w2 = 0.5", "result": "802.5 ± 1", "unit": "kg/m3"},
      {"measurement": "mass density", "setting": "293.15 K, 12000 kPa, w2 = 0.5", "result": "803.7 ± 1", "unit": "kg/m3"},
      {"measurement": "mass density", "setting": "293.15 K, 14000 kPa, w2 = 0.5", "result": "805 ± 1", "unit": "kg/m3"},
      {"measurement": "mass density", "setting": "293.15 K, 16000 kPa, w2 = 0.5", "result": "806.3 ± 1.1", "unit": "kg/m3"},
      {"measurement": "mass density", "setting": "293.15 K, 18000 kPa, w2 = 0.5", "result": "807.6 ± 1.1", "unit": "kg/m3"},
      {"measurement": "mass density", "setting": "293.15 K, 20000 kPa, w2 = 0.5", "result": "808.9 ± 1.1", "unit": "kg/m3"},
      {"measurement": "mass density", "setting": "295.65 K, 100 kPa, w2 = 0.5", "result": "793.6 ± 1", "unit": "kg/m3"},
      {"measurement": "mass density", "setting": "295.65 K, 2000 kPa, w2 = 0.5", "result": "794.9 ± 1", "unit": "kg/m3"},
      {"measurement": "mass density", "setting": "295.65 K, 4000 kPa, w2 = 0.5", "result": "796.3 ± 1", "unit": "kg/m3"},
      {"measurement": "mass density", "setting": "295.65 K, 6000 kPa, w2 = 0.5", "result": "797.7 ± 1", "unit": "kg/m3"},
      {"measurement": "mass density", "setting": "295.65 K, 8000 kPa, w2 = 0.5", "result": "799.1 ± 1", "unit": "kg/m3"},
      {"measurement": "mass density", "setting": "295.65 K, 10000 kPa, w2 = 0.5", "result": "800.5 ± 1", "unit": "kg/m3"},
      {"measurement": "mass density", "setting": "295.65 K, 12000 kPa, w2 = 0.5", "result": "801.8 ± 1", "unit": "kg/m3"},
      {"measurement": "mass density", "setting": "295.65 K, 14000 kPa, w2 = 0.5", "result": "803.1 ± 1.1", "unit": "kg/m3"},
      {"measurement": "mass density", "setting": "295.65 K, 16000 kPa, w2 = 0.5", "result": "804.3 ± 1.1", "unit": "kg/m3"},
      {"measurement": "mass density", "setting": "295.65 K, 18000 kPa, w2 = 0.5", "result": "805.6 ± 1.1", "unit": "kg/m3"},
      {"measurement": "mass density", "setting": "295.65 K, 20000 kPa, w2 = 0.5", "result": "806.8 ± 1.1", "unit": "kg/m3"},
      {"measurement": "viscosity", "setting": "298.15 K, 100 kPa, w2 = 0.5", "result": "1.09 ± 0.05", "unit": "mPa·s"},
      {"measurement": "mass density", "setting": "298.15 K, 100 kPa, w1 = 0.48", "result": "789.5 ± 1", "unit": "kg/m3"},
      {"measurement": "mass density", "setting": "298.15 K, 100 kPa, w1 = 0.49", "result": "790.4 ± 1", "unit": "kg/m3"},
      {"measurement": "mass density", "setting": "298.15 K, 100 kPa, w1 = 0.5", "result": "791.7 ± 1", "unit": "kg/m3"},
      {"measurement": "mass density", "setting": "298.15 K, 100 kPa, w1 = 0.51", "result": "792.7 ± 1", "unit": "kg/m3"},
      {"measurement": "mass density", "setting": "298.15 K, 100 kPa, w1 = 0.52", "result": "793.6 ± 1", "unit": "kg/m3"},
      {"measurement": "mass density", "setting": "298.15 K, 100 kPa, w2 = 0.5", "result": "791.7 ± 1", "unit": "kg/m3"},
      {"measurement": "mass density", "setting": "298.15 K, 2000 kPa, w1 = 0.48", "result": "790.9 ± 1", "unit": "kg/m3"},
      {"measurement": "mass density", "setting": "298.15 K, 2000 kPa, w1 = 0.49", "result": "792 ± 1", "unit": "kg/m3"},
      {"measurement": "mass density", "setting": "298.15 K, 2000 kPa, w1 = 0.5", "result": "793.1 ± 1", "unit": "kg/m3"},
      {"measurement": "mass density", "setting": "298.15 K, 2000 kPa, w1 = 0.51", "result": "794.1 ± 1", "unit": "kg/m3"},
      {"measurement": "mass density", "setting": "298.15 K, 2000 kPa, w1 = 0.52", "result": "795.2 ± 1", "unit": "kg/m3"},
      {"measurement": "mass density", "setting": "298.15 K, 2000 kPa, w2 = 0.5", "result": "793.1 ± 1", "unit": "kg/m3"},
      {"measurement": "viscosity", "setting": "298.15 K, 4000 kPa, w2 = 0.5", "result": "1.14 ± 0.05", "unit": "mPa·s"},
      {"measurement": "mass density", "setting": "298.15 K, 4000 kPa, w1 = 0.48", "result": "792.4 ± 1", "unit": "kg/m3"},
      {"measurement": "mass density", "setting": "298.15 K, 4000 kPa, w1 = 0.49", "result": "793.5 ± 1", "unit": "kg/m3"},
      {"measurement": "mass density", "setting": "298.15 K, 4000 kPa, w1 = 0.5", "result": "794.5 ± 1", "unit": "kg/m3"},
      {"measurement": "mass density", "setting": "298.15 K, 4000 kPa, w1 = 0.51", "result": "795.7 ± 1", "unit": "kg/m3"},
      {"measurement": "mass density", "setting": "298.15 K, 4000 kPa, w1 = 0.52", "result": "796.6 ± 1", "unit": "kg/m3"},
      {"measurement": "mass density", "setting": "298.15 K, 4000 kPa, w2 = 0.5", "result": "794.5 ± 1", "unit": "kg/m3"},
      {"measurement": "mass density", "setting": "298.15 K, 6000 kPa, w1 = 0.48", "result": "793.9 ± 1", "unit": "kg/m3"},
      {"measurement": "mass density", "setting": "298.15 K, 6000 kPa, w1 = 0.49", "result": "794.9 ± 1", "unit": "kg/m3"},
      {"measurement": "mass density", "setting": "298.15 K, 6000 kPa, w1 = 0.5", "result": "795.9 ± 1", "unit": "kg/m3"},
      {"measurement": "mass density", "setting": "298.15 K, 6000 kPa, w1 = 0.51", "result": "797 ± 1", "unit": "kg/m3"},
      {"measurement": "mass density", "setting": "298.15 K, 6000 kPa, w1 = 0.52", "result": "797.9 ± 1", "unit": "kg/m3"},
      {"measurement": "mass density", "setting": "298.15 K, 6000 kPa, w2 = 0.5", "result": "795.9 ± 1", "unit": "kg/m3"},
      {"measurement": "mass density", "setting": "298.15 K, 8000 kPa, w1 = 0.48", "result": "795.3 ± 1", "unit": "kg/m3"},
      {"measurement": "mass density", "setting": "298.15 K, 8000 kPa, w1 = 0.49", "result": "796.3 ± 1", "unit": "kg/m3"},
      {"measurement": "mass density", "setting": "298.15 K, 8000 kPa, w1 = 0.5", "result": "797.3 ± 1", "unit": "kg/m3"},
      {"measurement": "mass density", "setting": "298.15 K, 8000 kPa, w1 = 0.51", "result": "798.4 ± 1", "unit": "kg/m3"},
      {"measurement": "mass density", "setting": "298.15 K, 8000 kPa, w1 = 0.52", "result": "799.3 ± 1", "unit": "kg/m3"},
      {"measurement": "mass density", "setting": "298.15 K, 8000 kPa, w2 = 0.5", "result": "797.3 ± 1", "unit": "kg/m3"},
      {"measurement": "viscosity", "setting": "298.15 K, 10000 kPa, w2 = 0.5", "result": "1.22 ± 0.05", "unit": "mPa·s"},
      {"measurement": "mass density", "setting": "298.15 K, 10000 kPa, w1 = 0.48", "result": "796.6 ± 1", "unit": "kg/m3"}
    ]}
  ]
}
